Test results taken from patent US20130059850A1, “AZA-INDOLE DERIVATIVES USEFUL AS MODULATORS OF FAAH” (MERCK SHARP & DOHME CORP., priority 2010, published 2013).

How the values were obtained:
[1] = target: T1, human FAAH (Fatty Acid Amide Hydrolase) (Homo sapiens, UniProt O00519); assay: FAAH enzyme assay on CHO cell lysate expressing human FAAH (human LY), AAMCA fluorescent substrate; type: biochemical; details: human FAAH_CHO cell lysate
T1 construct: The full length FAAH was subcloned into the mammalian expression vector, pcDEF.neo, using XbaI and EcoRI restriction sites; expressed in transfected cells
T1 sequence (O00519 1-579): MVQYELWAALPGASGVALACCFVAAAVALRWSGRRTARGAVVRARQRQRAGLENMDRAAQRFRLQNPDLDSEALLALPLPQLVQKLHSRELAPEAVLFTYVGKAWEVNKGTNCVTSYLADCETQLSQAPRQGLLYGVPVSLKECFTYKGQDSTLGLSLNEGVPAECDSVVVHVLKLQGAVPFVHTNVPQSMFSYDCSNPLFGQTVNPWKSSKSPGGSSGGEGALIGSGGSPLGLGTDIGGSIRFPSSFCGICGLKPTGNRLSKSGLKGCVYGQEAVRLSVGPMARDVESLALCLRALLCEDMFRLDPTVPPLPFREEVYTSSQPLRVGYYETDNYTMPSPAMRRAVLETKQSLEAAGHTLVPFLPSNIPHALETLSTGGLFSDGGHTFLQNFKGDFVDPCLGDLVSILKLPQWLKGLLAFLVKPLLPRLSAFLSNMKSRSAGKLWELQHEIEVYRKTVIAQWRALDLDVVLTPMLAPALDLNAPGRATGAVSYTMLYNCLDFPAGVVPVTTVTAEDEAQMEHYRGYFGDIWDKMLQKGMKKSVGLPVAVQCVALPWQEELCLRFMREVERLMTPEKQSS
Text: (§1) To assist in assay development stable cell lines for human, murine and rat full length FAAH were developed. Human FAAH cDNA (Accession No: NM_001441.1) was purchased from Origene (Rockville, Md.). The full length FAAH was subcloned into the mammalian expression vector, pcDEF.neo, using XbaI and EcoRI restriction sites and used for stable cell line generation.
CHO cells expressing FAAH were used to prepare either crude cell lysate or microsome fractions. To harvest cells, tissue culture media was decanted, the monolayer washed three times with Ca^++Mg^++ free PBS and cells recovered after […] in enzyme free dissociation media (Millipore Corp, Billerica, Mass.). Cells were collected by centrifuging at 2000 rpm for 15 min. and the cell pellet re-suspended with 50 mM HEPES (pH 7.4) containing 1 mM EDTA and the protease inhibitors aprotinin (1 mg/ml) and leupeptin (100 μM). The suspension was sonicated at 4° C. and the cell lysate recovered after centrifuging at 12,000×g (14,600 rpm, SS34 rotor) for 20 min at 4° C. to form a crude pellet of cell debris, nuclei, peroxisomes, lysosomes, and mitochondria; the supernatant or cell lysate was used for FAAH enzyme assay. In some cases, microsomes fractions enriched in FAAH were prepared by centrifuging the cell lysate further at 27,000 rpm (100,000×g) in SW28 rotor for 50 minutes at 4° C. The pellet containing FAAH-enriched microsomes was re-suspend in 50 mM HEPES, (pH 7.4) 1 mM EDTA, and any remaining DNA sheared by passage of material through a 23 gauge needle and aliquots of enzyme were store at −80° C. prior to use.
(§2) (American Radiolabeled Chemicals; 1 mCi/ml) with FAAH (Life Sciences (1995), 56, 1999-2005 and Journal of Pharmacology and Experimented Therapeutics (1997), 283, 729-734), Analytical. Biochemistry (2003), 318, 270-5. In addition, routine assays were performed monitoring hydrolysis of arachidonyl-7-amino-4-methylcoumarin amide (AAMCA) by following increase in fluorescence upon release of 7-amino 4-methyl coumarin (λEX=355 nm, μEM=460 nm). Analytical. Biochemistry (2005). 343, 143-51
(§3) Assays are performed on either cell lysate or microsome fractions prepared as described or in whole cell format employing either the fluorescent substrate AAMCA (Cayman chemical, Ann Arbor, Mich.,) or ^3H-anandamide ([ETHANOLAMINE-1-3H] American Radiolabeled Chemicals; 1 mCi/ml). The cell lysate or microsome assay is performed in black PerkinElmer OptiPlates-384F by adding FAAH_CHO (whole cell (human whole cell or human WC), cell lysate (human cell lysate or human LY) or microsome) in assay buffer (50 mM Phosphate, pH 8.0, 1 mM EDTA, 200 mM KCl, 0.2% glycerol, 0.1% fatty acid free BSA) to each well, followed by either DMSO or compound and allowed to incubate at 22-25° C. for fifteen minutes. AAMCA substrate was used to achieve a final concentration of 1 μM and reaction allowed to proceed at room temperature for 1-3 hours. Fluorescent release as a measure of FAAH activity was monitored by reading the plate in a Envision plate Reader (Ex: 360/40 nM; Em: 460/40 nM). Whole cell assay is conducted with cells harvested after rinsing tissue culture flasks three times with Ca^++Mg^++ free PBS, incubating for […] in Enzyme free dissociation media and centrifuging for 5 minutes at 1,000 rpm in table top centrifuge. Cells are resuspended in assay buffer at desired cell number in (4×10^4 cells/assay in 96-well format; 1×10^4 cells/assay in 384-well format) and assayed as described.

[2] = target: T1, human FAAH (Fatty Acid Amide Hydrolase); assay: FAAH whole cell assay on CHO cells expressing human FAAH (human WC), AAMCA fluorescent substrate; type: cell-based; details: human FAAH_CHO whole cell
Text: as §1
Murine (accession number NM_010173) and Rat FAAH (accession number NM_024132) was amplified by reverse transcriptase polymerase chain reaction (RT-PCR) from brain cDNA (BD Biosciences, San Jose, Calif.) using primers 1 and 2 or primers 1 and 3 respectively (see Table). The resulting PCR product was ligated into pCR4 TOPO and DNA sequence confirmed. The full length murine FAAH was subcloned into the mammalian expression vector, pcDEFneo using either EcoRI (murine) or KpnI and EcoRI (rat) restriction sites. Chinese hamster ovary cells (CHO) were transfected following manufacturers protocol (AMAXA). Forty eight hours post transfection, cells were trypsinized and transferred to 96 well plates in Iscove's DMEM media supplemented with 2 mM Glutamine, 10% fetal calf serum, 1 mg/ml geneticin and HT Supplement (0.1 mM sodium hypoxanthine, 0.016 mM thymidine) in order to isolate single clones. Following selection in geneticin, individual clones were selected and FAAH activity was assessed using a whole cell fluorescent anandamide assay, modified from Ramarao et al (2005). Following removal of tissue culture media cells were dislodged following addition of Cellstripper (Mediatech, Inc. Manassas, Va.) and transferred to 96 well black clear bottom assay plate, centrifuged at 1,000 rpm for 3 mins and media removed and replaced with assay buffer (50 mM Tris pH8.0, 1 mM EDTA, 0.1% fatty acid free BSA). The reaction was initiated by addition of fluorescent substrate, AMC Arachidonoyl Amide (Cayman Chemical, Ann Arbor, Mich.) to 1 μM and reaction allowed to proceed for 2 hours at room temperature. Release of fluorescence was monitored in a CytoFluor Multiplate Reader. Cells expressing the highest amount of FAAH activity were selected for study with FAAH inhibitors.
as §2
as §3, with “Cells are resuspended in assay buffer at desired cell number in (4×10^4 cells/assay in 96-well format; 1×10^4 cells/assay in 384-well format) and assayed as described.” left out

Structure (SMILES) | IC50 [1] | IC50 [2]
Clc1ccc(Sc2c(C3=CCCOC3)[nH]c3ncccc23)cc1 [Example B17] | 31.9 nM | 190 nM
Oc1ccc(-c2[nH]c3ncccc3c2Sc2ccc(Cl)cc2)cc1 [Example A23] | 1.65 nM | 16.4 nM
Clc1ccc(Sc2c(-c3cnn4c3CCC4)[nH]c3ncccc23)cc1 [Example B31] | 113 nM | 686 nM
NCc1ccc(-c2[nH]c3ncccc3c2Sc2ccc(Cl)cc2)cc1 [Example A30] | 56.3 nM | 833 nM
CSc1ccc(-c2[nH]c3ncccc3c2Sc2ccc(Cl)cn2)cc1 [Example A14] | 2.98 nM | 35.6 nM
Clc1ccc(Sc2c(-c3cccc4[nH]ccc34)[nH]c3ncccc23)cc1 [Example B10] | 3.88 nM | 20.7 nM
Clc1ccc(Sc2c(-c3ccc(C4CC4)nc3)[nH]c3ncccc23)cc1 [Example B37] | 6.42 nM | 21.7 nM
CC(C)(O)c1ccc(-c2[nH]c3ncccc3c2Sc2ccc(Cl)cn2)cc1 [Example A13] | 17.8 nM | 73.2 nM
O=C(NCCO)C1CC=C(c2[nH]c3ncccc3c2Sc2ccc(Cl)cc2)CC1 (centres unmarked) [Example B49] | 23.8 nM | 66.3 nM
CN(C)S(=O)(=O)c1ccc(-c2[nH]c3ncccc3c2Sc2ccc(Cl)cc2)cc1 [Example A11] | 6.38 nM | 84.1 nM
N#Cc1cscc1-c1[nH]c2ncccc2c1Sc1ccc(Cl)cc1 [Example B32] | 94.8 nM | 438 nM
CC(C)(C)NS(=O)(=O)c1ccc(-c2[nH]c3ncccc3c2Sc2ccc(Cl)cc2)cc1 [Example A22] | 117 nM | 370 nM
COc1ccc(-c2[nH]c3ncccc3c2Sc2ccc(Cl)cn2)cn1 [Example A24] | 30.4 nM | 128 nM
Cn1ccc2cc(-c3[nH]c4ncccc4c3Sc3ccc(Cl)cc3)ccc21 [Example B11] | 3.29 nM | 10.2 nM
Cc1noc(C)c1-c1[nH]c2ncccc2c1Sc1ccc(Cl)cc1 [Example B30] | 208 nM | 1110 nM
C[S+]([O-])c1ccc(-c2[nH]c3ncccc3c2Sc2ccc(Cl)cn2)cn1 (centres unmarked) [Example A15] | 44.1 nM | 34.4 nM
Clc1ccc(Sc2c(-c3ccc4c(c3)OCCO4)[nH]c3ncccc23)cc1 [Example B6, 3-[(4-chlorophenyl)sulfanyl]-2-(2,3-dihydro-1,4-benzodioxin-6-yl)-1H-pyrrolo[2,3-b]pyridine] | 4.42 nM | 11.8 nM
Clc1ccc(Sc2c(-c3ccc4c(c3)OCO4)[nH]c3ncccc23)cc1 [Example B4, 2-(1,3-benzodioxol-5-yl)-3-[(4-chlorophenyl)sulfanyl]-1H-pyrrolo[2,3-b]pyridine] | 0.508 nM | 4.62 nM
N#CC1CC=C(c2[nH]c3ncccc3c2Sc2ccc(Cl)cc2)CC1 (centres unmarked) [Example B16] | 21.7 nM | 119 nM

Other lines, results leading:

IC50 [1] | IC50 [2] | Structure (SMILES)
181 nM | 1210 nM | Cn1cccc2c(Sc3ccc(Cl)cn3)c(C3=CCC(O)CC3)nc1-2 (centres unmarked) [Example E19]
148 nM | 252 nM | Cn1cccc2c(Sc3ccc(Cl)cn3)c([C@H]3CC[C@@H](O)CC3)nc1-2 [Example E23]
2.15 nM | 10.7 nM | Clc1ccc(Sc2c(-c3ccc4[nH]ncc4c3)[nH]c3ncccc23)cc1 [Example I3, 5-{3-[(4-chlorophenyl)sulfanyl]-1H-pyrrolo[2,3-b]pyridin-2-yl}-1H-indazole]
15.2 nM | 107 nM | O=C(NCc1ccc(O)c(O)c1)c1[nH]c2ncccc2c1Sc1ccc(Cl)cc1 [Example C11]
2030 nM | 8490 nM | Cn1cccc2c(Sc3ccc(Cl)cn3)c([C@H]3CC[C@H](O)CC3)nc1-2 [Example E16]
339 nM | 1110 nM | Clc1ccc(Sc2c(-c3ccccn3)[nH]c3ncccc23)cc1 [Example F9]
256 nM | 2630 nM | CC(C1COc2ccccc2O1)N(C)C(=O)c1[nH]c2ncccc2c1Sc1ccc(Cl)cc1 (centres unmarked) [Example C13]
695 nM | 5890 nM | CC(C)C(O)c1[nH]c2ncccc2c1Sc1ccc(Cl)cc1 (centres unmarked) [Example J11]
116 nM | 925 nM | Cn1cccc2c(Sc3ccc(Cl)cn3)c(-c3ccc(C(O)C(F)(F)F)cc3)nc1-2 (centres unmarked) [Example E14]
18.5 nM | 70.6 nM | Cn1cccc2c(Sc3ccc(Cl)cc3)c(-c3ccc(C(O)C(F)(F)F)cc3)nc1-2 (centres unmarked) [Example E10]
 | 9.35 nM | COC(=O)N1CCC(c2nc3n(C)cccc-3c2Sc2ccc(Cl)cc2)CC1 [Example E32]
